Experimental data published in PubChem BioAssay AID330 (DTP/NCI, 2004).
Where “and” joins values, the source holds several entries; their conditions need not be identical. Equal values may be shown once. Toxic doses and inconclusive results are not listed. Rule for the calls: active = survival T/C of 150% or more; inactive = T/C below 125% in these data.

Test system: P388 leukemia ip, CD2F1 mice, survival T/C
Test: NCI In Vivo Anticancer Drug Screen. Data for tumor model P388 Leukemia (intraperitoneal) in CD2F1 (CDF1) mice
Conditions: endpoint: median survival time, higher = longer survival
Procedure, shortened: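 Mice carrying the transplanted tumor received test compound or vehicle. Survival was recorded in each group, and the value is the treated-group measurement divided by that of the vehicle-treated control group.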

[1] = dose: 6.25 mg/kg/injection, schedule: Q01DX009 (ip), vehicle: water
[2] = dose: 12.5 mg/kg/injection, schedule: Q01DX009 (ip), vehicle: water
[3] = dose: 50.0 mg/kg/injection, schedule: Q01DX009 (ip), vehicle: saline with Tween-80
[4] = dose: 100.0 mg/kg/injection, schedule: Q01DX009 (ip), vehicle: saline with Tween-80
[5] = dose: 200.0 mg/kg/injection, schedule: Q01DX009 (ip), vehicle: saline with Tween-80
[6] = dose: 400.0 mg/kg/injection, schedule: Q01DX009 (ip), vehicle: saline with Tween-80
[7] = dose: 60.0 mg/kg/injection, schedule: Q01DX005 (ip), vehicle: saline with Tween-80
[8] = dose: 120.0 mg/kg/injection, schedule: Q01DX005 (ip), vehicle: saline with Tween-80
[9] = dose: 240.0 mg/kg/injection, schedule: Q01DX005 (ip), vehicle: saline with Tween-80
[10] = dose: 100.0 mg/kg/injection, schedule: Q04DX002 (ip), vehicle: saline with Tween-80
[11] = dose: 200.0 mg/kg/injection, schedule: Q04DX002 (ip), vehicle: saline with Tween-80
[12] = dose: 400.0 mg/kg/injection, schedule: Q04DX002 (ip), vehicle: saline with Tween-80
[13] = dose: 50.0 mg/kg/injection, schedule: Q01DX009 (ip), vehicle: Klucel (hydroxypropylcellulose) (HPC)
[14] = dose: 50.0 mg/kg/injection, schedule: Q01DX005 (ip), vehicle: saline with Tween-80
[15] = dose: 100.0 mg/kg/injection, schedule: Q01DX005 (ip), vehicle: saline with Tween-80
[16] = dose: 200.0 mg/kg/injection, schedule: Q01DX005 (ip), vehicle: saline with Tween-80
[17] = dose: 25.0 mg/kg/injection, schedule: Q01DX005 (ip), vehicle: saline with Tween-80
[18] = dose: 50.0 mg/kg/injection, schedule: Q01DX009 (ip), vehicle: saline
[19] = dose: 100.0 mg/kg/injection, schedule: Q01DX009 (ip), vehicle: saline
[20] = dose: 200.0 mg/kg/injection, schedule: Q01DX009 (ip), vehicle: saline
[21] = dose: 100.0 mg/kg/injection, schedule: Q01DX009 (ip), vehicle: Klucel (hydroxypropylcellulose) (HPC)
[22] = dose: 200.0 mg/kg/injection, schedule: Q01DX009 (ip), vehicle: Klucel (hydroxypropylcellulose) (HPC)

Measured: T/C

Nc1n[n+](C2CCCCC2)no1
inactive: dose: 3.13 mg/kg/injection, schedule: Q01DX009 (ip), vehicle: water 111 % of control | [1] 98 % of control | [2] 101 % of control

O=C1NN(c2ccccc2)C(=O)/C1=C\c1ccccc1
inactive: [3] 91 % of control | dose: 75.0 mg/kg/injection, schedule: Q01DX009 (ip), vehicle: saline with Tween-80 100 % of control | [4] 94 % of control | dose: 150.0 mg/kg/injection, schedule: Q01DX009 (ip), vehicle: saline with Tween-80 99 % of control | [5] 95 % of control | dose: 300.0 mg/kg/injection, schedule: Q01DX009 (ip), vehicle: saline with Tween-80 95 % of control | [6] 114 % of control | dose: 600.0 mg/kg/injection, schedule: Q01DX009 (ip), vehicle: saline with Tween-80 104 % of control

O=[N+]([O-])c1ccccc1S(=O)(=O)N(CCCCN(S(=O)(=O)c1ccccc1[N+](=O)[O-])S(=O)(=O)c1ccccc1[N+](=O)[O-])S(=O)(=O)c1ccccc1[N+](=O)[O-]
inactive: [7] 93 % of control | [8] 91 % of control | [9] 87 % of control

CC(N)CCC(C)(C)O (stereo not given)
inactive: dose: 25.0 mg/kg/injection, schedule: Q04DX003 (ip), vehicle: saline 100 % of control | dose: 50.0 mg/kg/injection, schedule: Q04DX003 (ip), vehicle: saline 90 % of control | dose: 100.0 mg/kg/injection, schedule: Q04DX003 (ip), vehicle: saline 100 % of control

COc1cccc(-c2nnc(-c3nc[nH]c3C)[nH]c2=O)c1
inactive: [10] 93 % of control | [11] 91 % of control | [12] 91 % of control

C[As](C)SCC(N)C(=O)O (stereo not given)
inactive: dose: 12.5 mg/kg/injection, schedule: Q01DX009 (ip), vehicle: Klucel (hydroxypropylcellulose) (HPC) 107 % of control | dose: 25.0 mg/kg/injection, schedule: Q01DX009 (ip), vehicle: Klucel (hydroxypropylcellulose) (HPC) 106 % of control | [13] 103 % of control and 110 % of control

OCCN(CCO)C(Cc1ccccc1)c1ccccc1 (stereo not given)
inactive: [14] 110 % of control | [15] 105 % of control | [16] 110 % of control

COC(=O)c1onc2ccc(Cl)cc12
inactive: dose: 18.75 mg/kg/injection, schedule: Q01DX005 (ip), vehicle: Klucel (hydroxypropylcellulose) (HPC) 99 % of control | dose: 37.5 mg/kg/injection, schedule: Q01DX005 (ip), vehicle: Klucel (hydroxypropylcellulose) (HPC) 92 % of control | dose: 75.0 mg/kg/injection, schedule: Q01DX005 (ip), vehicle: Klucel (hydroxypropylcellulose) (HPC) 93 % of control | dose: 150.0 mg/kg/injection, schedule: Q01DX005 (ip), vehicle: Klucel (hydroxypropylcellulose) (HPC) 95 % of control

O=C1CCC(=O)N1SC(Cl)(Cl)Cl
inactive: dose: 6.25 mg/kg/injection, schedule: Q01DX005 (ip), vehicle: saline with Tween-80 109 % of control | dose: 12.5 mg/kg/injection, schedule: Q01DX005 (ip), vehicle: saline with Tween-80 107 % of control | [17] 100 % of control

O=C(CCl)NC(Cc1cccs1)C(=O)O (stereo not given)
inactive: [18] 98 % of control | [19] 93 % of control | [20] 96 % of control

COc1ccc(C(=Nc2ccc(C)cc2)c2ccc([N+](=O)[O-])cc2)cc1
inactive: [4] 90 % of control | dose: 100.0 mg/kg/injection, schedule: Q04DX003 (ip), vehicle: saline with Tween-80 95 % of control | [5] 90 % of control | dose: 200.0 mg/kg/injection, schedule: Q04DX003 (ip), vehicle: saline with Tween-80 95 % of control | [6] 90 % of control | dose: 400.0 mg/kg/injection, schedule: Q04DX003 (ip), vehicle: saline with Tween-80 100 % of control

CC1N=C(SCc2c(F)cccc2Cl)N2C(C)N=C(SCc3c(F)cccc3Cl)N12 (stereo not given)
inactive: [14] 96 % of control | [15] 96 % of control | [16] 93 % of control

COc1ccc(CN2CC(=O)N3Cc4ccccc4CN3C(=O)C2)cc1
inactive: [14] 103 % of control | [15] 103 % of control | [16] 103 % of control

[N-]=[N+]=Nc1ccc(NCCN2C(=O)C=CC2=O)c([N+](=O)[O-])c1
inactive: [14] 103 % of control | [15] 101 % of control | [16] 101 % of control

O=NNc1cncc(Cl)n1
inactive: dose: 3.12 mg/kg/injection, schedule: Q01DX009 (ip), vehicle: water 100 % of control | [1] 97 % of control | [2] 105 % of control | dose: 25.0 mg/kg/injection, schedule: Q01DX009 (ip), vehicle: water 99 % of control | dose: 50.0 mg/kg/injection, schedule: Q01DX009 (ip), vehicle: water 92 % of control and 97 % of control

CSC(=S)N/N=C(/C)CC(C)C
inactive: dose: 12.5 mg/kg/injection, schedule: Q01DX009 (ip), vehicle: saline with Tween-80 105 % of control | dose: 25.0 mg/kg/injection, schedule: Q01DX009 (ip), vehicle: saline with Tween-80 120 % of control | [3] 100 % of control

N/C=N/OC(c1ccccc1)c1ccccc1
inactive: dose: 50.0 mg/kg/injection, schedule: Q01DX005 (ip), vehicle: Klucel + Tween-80 99 % of control | dose: 100.0 mg/kg/injection, schedule: Q01DX005 (ip), vehicle: Klucel + Tween-80 102 % of control | dose: 200.0 mg/kg/injection, schedule: Q01DX005 (ip), vehicle: Klucel + Tween-80 98 % of control

C#CCN1CCCCC1
inactive: dose: 12.5 mg/kg/injection, schedule: Q01DX005 (ip), vehicle: saline 105 % of control | dose: 25.0 mg/kg/injection, schedule: Q01DX005 (ip), vehicle: saline 100 % of control | dose: 50.0 mg/kg/injection, schedule: Q01DX005 (ip), vehicle: saline 100 % of control and 107 % of control

COc1ccc2c(c1OC)CN(C)[C@]13ON(c4ccccc4)[C@H](C[C@]21C)c1cc2c(cc13)OCO2
inactive: [10] 98 % of control | [11] 88 % of control | [12] 95 % of control

Cc1[nH]nc2c(Cc3ccccc3)n[nH]c(=O)c12
inactive: [13] 102 % of control | [21] 104 % of control | [22] 112 % of control

O=C(CC1=NC2NN(c3ccccc3)C(=O)C2=C1CC(=O)c1ccccc1)c1ccccc1 (stereo not given)
inactive: dose: 60.0 mg/kg/injection, schedule: Q01DX005 (ip), vehicle: saline 100 % of control | dose: 120.0 mg/kg/injection, schedule: Q01DX005 (ip), vehicle: saline 107 % of control | dose: 240.0 mg/kg/injection, schedule: Q01DX005 (ip), vehicle: saline 110 % of control

Cc1nc(Br)c(C(O)c2ccccc2)n1C (stereo not given)
inactive: [7] 103 % of control | [8] 92 % of control | [9] 97 % of control

CCCCCNCC(=O)ON1CCCC1C(=O)NC(Cc1ccccc1)C(=O)NC(CC(C)C)C(=O)O (stereo not given)
inactive: [10] 104 % of control | [11] 101 % of control | [12] 101 % of control

O=C1NC2(CCCCC2)C(=O)N1CO
inactive: [17] 101 % of control and 109 % of control | [14] 100 % of control and 101 % of control | [15] 103 % of control and 108 % of control | [16] 116 % of control

N#C/C(N)=C(\C#N)N=Cc1ccc(N(CCCl)CCCl)cc1
inactive: [14] 100 % of control | [15] 104 % of control | [16] 92 % of control

COc1cccc(C[n+]2ccccc2C#N)c1OC
inactive: dose: 3.12 mg/kg/injection, schedule: Q04DX002 (ip), vehicle: saline 101 % of control | dose: 6.25 mg/kg/injection, schedule: Q04DX002 (ip), vehicle: saline 102 % of control | dose: 12.5 mg/kg/injection, schedule: Q04DX002 (ip), vehicle: saline 103 % of control and 92 % of control

CCCCCCCC(=O)C1C(=O)OC(C)(C)OC1=O
inactive: [7] 100 % of control | [8] 100 % of control

OC(c1ccncc1)(c1ccc(Cl)cc1)c1cccs1 (stereo not given)
inactive: [13] 101 % of control | [21] 98 % of control | [22] 93 % of control

NC(=O)C(N)C(F)c1ccccc1 (stereo not given)
inactive: [7] 102 % of control | [8] 95 % of control

COc1cc(/C=C/c2ccnnc2)cc(OC)c1OC
inactive: [18] 97 % of control | [19] 94 % of control | [20] 87 % of control
